Laboratory results: US20240409963A1, “Use of Inhibitors to Increase Efficiency of Crispr/CAS Insertions” (AstraZeneca AB, priority 2021, published 2024)

Columns and labels:
[1] = tested on: HEK293T cells; experiment: Different DNAPK inhibitors on precise gene editing outcomes, Example 8; conditions: for HDR to indel ratio / Precise KI fold increase: gINS + ssDNA; for Precise KI fold increase: vs DMSO; for MMEJ indels Mean / NHEJ indels Mean / Total editing Mean: sgRNA CD34 (gINS) + ssDNA, 70 hours post-transfection;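 for all read-outs here: cells transfected with plasmids for SpCas9-EGFP, editing outcomes quantified from genomic DNA by deep targeted amplicon sequencing with bioinformatic analysis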
Protocol: Cells allowed to attach for 12 hours before transfection. Cells were transfected with DNA plasmids encoding for SpCas9-EGFP and a sgRNAs targeting CD34 (gINS) in the presence of single-stranded oligonucleotide donor (ssDNA). 70 hours post-transfection cell confluence and EGFP-based transfection efficiencies were determined with the Incucyte S3. Genomic DNA was extracted and editing outcome was analysed through deep-targeted amplicon sequencing using bioinformatic analysis.

[2] = tested on: HEK293T cells; experiment: PolQ inhibitor ART558 titration on precise gene editing outcomes, Example 10; format: cell-based; conditions: HEK293T, with 1 μM AZD7648
Protocol: HEK293T cells were seeded into 96-well plates and allowed to attach for 20 hours.

| Compound | HDR to indel ratio ([1]; DNAPK inhibitor 0.3125 μM) | Precise KI fold increase ([1]; DNAPK inhibitor 0.3125 μM) [fold] | HDR to indel ratio ([1]; DNAPK inhibitor 0.625 μM) | Precise KI fold increase ([1]; DNAPK inhibitor 0.625 μM) [fold] | HDR to indel ratio ([1]; DNAPK inhibitor 1.25 μM) | Precise KI fold increase ([1]; DNAPK inhibitor 1.25 μM) [fold] | HDR to indel ratio ([1]; DNAPK inhibitor 5 μM) | Precise KI fold increase ([1]; DNAPK inhibitor 5 μM) [fold] | HDR to indel ratio ([1]; DNAPK inhibitor 10 μM) | Precise KI fold increase ([1]; DNAPK inhibitor 10 μM) [fold] | MMEJ indels Mean ([1]; DNAPK inhibitor 0.3125 μM) | NHEJ indels Mean ([1]; DNAPK inhibitor 0.3125 μM) | Total editing Mean ([1]; DNAPK inhibitor 0.3125 μM) | MMEJ indels Mean ([1]; DNAPK inhibitor 0.625 μM) | NHEJ indels Mean ([1]; DNAPK inhibitor 0.625 μM) | Total editing Mean ([1]; DNAPK inhibitor 0.625 μM) | MMEJ indels Mean ([1]; DNAPK inhibitor 1.25 μM) | NHEJ indels Mean ([1]; DNAPK inhibitor 1.25 μM) | Total editing Mean ([1]; DNAPK inhibitor 1.25 μM) | MMEJ indels Mean ([1]; DNAPK inhibitor 5 μM) | also measured |
| --- | --- | --- | --- | --- | --- | --- | --- | --- | --- | --- | --- | --- | --- | --- | --- | --- | --- | --- | --- | --- | --- |
| [2H]c1nc(C)nc([2H])c1-c1cc(NC[C@@H](C)c2cccc3c(C(=O)NC)ccnc23)ncn1 | 0.3 | 1.5 | 0.5 | 2.2 | 0.7 | 2.4 | 1.1 | 2.8 | 1.1 | 2.7 | 15.8 | 25.0 | 66.8 | 17.8 | 16.7 | 66.8 | 18.1 | 9.0 | 60.4 | 17.1 | NHEJ indels Mean ([1]; DNAPK inhibitor 5 μM): 2.4; Total editing Mean ([1]; DNAPK inhibitor 5 μM): 55.0; MMEJ indels Mean ([1]; DNAPK inhibitor 10 μM): 17.3; NHEJ indels Mean ([1]; DNAPK inhibitor 10 μM): 2.0; Total editing Mean ([1]; DNAPK inhibitor 10 μM): 53.4 |
| Cc1cccc(N(C)C(=O)[C@@H]2[C@H](O)CCN2c2nc(C)cc(C(F)(F)F)c2C#N)c1 [ART558] | – | – | – | – | – | – | – | – | – | – | – | – | – | – | – | – | – | – | – | – | precise knock-in frequencies of the single-stranded oligonucleotide donor ([2]; concentration-dependent): increases; unprecise DNA repair events ([2]; with increasing inhibitor concentration): decreases |
| Cc1nccnc1C(O)c1ccc(F)c(-c2ncnc3cc(N4CCOCC4)ccc23)c1 (centres unmarked) [TLR1, (4-fluoro-3-(7-morpholinoquinazolin-4-yl)phenyl) (3-methylpyrazin-2-yl) methanol] | 0.4 | 1.9 | 0.7 | 2.4 | 0.9 | 2.6 | 1.4 | 2.5 | 1.5 | 2.0 | 15.4 | 21.6 | 66.4 | 17.3 | 12.3 | 63.2 | 16.9 | 6.9 | 58.1 | 11.9 | NHEJ indels Mean ([1]; DNAPK inhibitor 5 μM): 1.7; Total editing Mean ([1]; DNAPK inhibitor 5 μM): 44.5; MMEJ indels Mean ([1]; DNAPK inhibitor 10 μM): 9.2; NHEJ indels Mean ([1]; DNAPK inhibitor 10 μM): 1.3; Total editing Mean ([1]; DNAPK inhibitor 10 μM): 34.1 |
| Cc1cc2ncnn2cc1Nc1ncc2c(n1)N(C1CCOCC1)CC(=O)N2C [TLR2, 5-methyl-2-((7-methyl-[1,2,4]triazolo[1,5-a]pyridin-6-yl)amino)-8-(tetrahydro-2H-pyran-4-yl)-7,8 dihydropteridin-6 (5H)-one] | 0.6 | 2.3 | 0.9 | 2.5 | 1.0 | 2.3 | 1.1 | 2.6 | 1.1 | 2.1 | 16.7 | 13.5 | 62.8 | 17.1 | 6.1 | 56.8 | 16.0 | 3.2 | 49.7 | 16.2 | NHEJ indels Mean ([1]; DNAPK inhibitor 5 μM): 2.1; Total editing Mean ([1]; DNAPK inhibitor 5 μM): 50.9; MMEJ indels Mean ([1]; DNAPK inhibitor 10 μM): 13.6; NHEJ indels Mean ([1]; DNAPK inhibitor 10 μM): 1.8; Total editing Mean ([1]; DNAPK inhibitor 10 μM): 42.4 |
